pIC50: −log10 of the molar value.

The target of the first test is T1, human type 2 17β-hydroxysteroid dehydrogenase (Homo sapiens, UniProt P37059).
T1 construct: expressed in transfected cells; host or cells: 293 cells, transient transfection; microsomal fraction (100 000×g pellet)
T1 sequence (P37059 1-387): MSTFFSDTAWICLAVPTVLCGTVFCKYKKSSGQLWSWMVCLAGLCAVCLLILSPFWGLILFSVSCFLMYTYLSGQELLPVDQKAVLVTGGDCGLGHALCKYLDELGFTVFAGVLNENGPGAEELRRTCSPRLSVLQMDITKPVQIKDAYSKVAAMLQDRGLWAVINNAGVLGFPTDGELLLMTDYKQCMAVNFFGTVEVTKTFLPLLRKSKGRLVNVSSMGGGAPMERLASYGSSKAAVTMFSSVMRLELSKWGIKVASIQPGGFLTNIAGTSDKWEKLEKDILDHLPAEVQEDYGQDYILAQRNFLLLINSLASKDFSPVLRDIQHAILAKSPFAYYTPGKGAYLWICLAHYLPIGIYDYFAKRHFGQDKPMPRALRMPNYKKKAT
Nature of the test: Enzymatic assay for type 2 17β-HSD. It counts as biochemical. Conditions: Table 4′; bracketed values, 3 · 10^−8M. As for the experimental part: The manner in which IC50 was determined is described in “Efficacy of Preferred Inhibitors: VI. Enzymatic assay for types 1, 2, and 3 17β-HSD and types 1 and 3 3α-HSD”. […] numbers of IC50 are desirable. Blank means that a determination was not done. […]
Enzyme sources. 293 cells transiently transfected with expression vectors encoding types 1, 2 and 3 17β-HSD (Luu-The et al., J. Steroid Biochem. Molec. Biol., 55: 581-587, 1995), types 1 and 2 5α-reductase (Luu-The et al., J. Invest. Dermatol., 102: 221-226, 1994) and types 1 and 3 3α-HSD (Dufort et al. Biochem. Biophys. Res. Commun. 228: 474-479, 1996), using the calcium phosphate procedure (Kingston et al., In: Current Protocols in Molecular Biology. Edited by E. M. Ausbel, R. Brent, R. E. Kingston, D. D. Moore, J. G. Seidman, J. A. Smith, K. Struhl. John Wiley & Sons, New York, pp. 9.1.1-9.1.9, 1991; Luu-The et al., J. Invest. Dermatol., 102: 221-226, 1994). For assays using cell subfractions, cells were sonicated in 50 mM sodium phosphate buffer (pH 7.4), containing 20% glycerol and 1 mM EDTA and centrifuged at 10 000×g for 30 min before centrifugation for 100 000×g for 1 h to separate the mitochondrial and microsomal fractions, respectively. The cytosol fractions (100 000×g supernatant) was used to determine type 1 activity while the microsomal fraction (pellet at 100 000×g) was used for measurement of types 2 and 3 17β-HSD activities.
Incubation. The enzymatic reaction was carried out at 37° C. in 1 ml of 50 mM sodium phosphate buffer, pH 7.4, containing 20% glycerol, 1 mM EDTA, and 2 mM cofactors (NADPH or AND^+) for 1 h in the presence of 0.1 μM ^14C-labeled substrate: estrone and 4-dione for types 1 and […] 17β-HSD, respectively, testosterone for type 2 17β-HSD as well as types 1 and 2 5α-reductases, DHT for types 1 and 3 3α-HSD activities, and the indicated concentration of inhibitor.
Extraction of metabolites, migration on TLC and quantification were as described above for the assay of type 5 17β-HSD.
For the compound `CC1(C)CC[C@@]2(CC[C@H]3[C@@H]4CCc5c(cc(Br)c(O)c5Br)[C@H]4CC[C@@]32C)OC1=O` [EM-1382-CS], the “Inhibition Type 2 17β-HSD Activity [% Inh. at 3 · 10^−8M]” value is “[70] %”.

Regarding `CC1(C)CCC2(CCC3C4CCc5cc(C(=O)OCc6ccccc6)ccc5C4CCC32C)OC1=O` (stereo not shown) [EM-1398], the “Inhibition Type 2 17β-HSD Activity [% Inh. at 3 · 10^−8M]” value is “[64] %”.

With `COCCOc1cc2c(cc1C(F)(F)F)[C@H]1CC[C@@]3(C)[C@@H](CC[C@@]34CCC(C)(C)C(=O)O4)[C@@H]1CC2` [EM-1438, 3-(2′-Methoxyethoxy)-2-trifluoromethyl-1,3,5(10)-estratrien-17(R)-spiro-2′-(5′,5′-dimethyl-6′-oxo)tetrahydropyran], the “Inhibition Type 2 17β-HSD Activity [% Inh. at 3 · 10^−8M]” value is “[72] %”.

The test is the same for the next values; noted with them: Table 4′; bracketed values, 3 · 10^−8M; read-out: Inhibition Type 2 17β-HSD Activity [% Inh. at 3 · 10^−8M].
For `CC12CCC3c4ccc(F)cc4CCC3C1CCC21CCCC(=O)O1` (stereo not shown) [EM-1170-CS], the inhibition was 84%.

Consider `CC1(C)CC[C@@]2(CCC3C4CCc5cc(C(=O)O)ccc5C4CC[C@@]32C)OC1=O` (stereo partly drawn) [EM-1401, 3-Carboxy-1,3,5(10)-estratrien-17(R)-spiro-2′-(5′,5′-dimethyl-6′-oxo)tetrahydropyran], for which the inhibition was determined as 76%.

On to `CC1(C)CC[C@@]2(CCC3C4CCc5cc6oncc6cc5C4CC[C@@]32C)OC1=O` (stereo partly drawn) [EM-1407-CS, 1,3,5(10)-estratrien-(2,3-oximino)-17(R)-spiro-2′-(5′,5′-dimethyl-6′-oxo)tetrahydropyran], for which the inhibition is 68%.

In the case of `COCCOc1ccc2c(c1)C(=O)CC1C2CCC2(C)C1CCC21CCC(C)(C)C(=O)O1` (stereo not shown) [EM-1408-CS], the inhibition came to 66%.

Regarding `COc1cc2c(cc1C(F)(F)F)C1CCC3(C)C(CCC34CCC(C)(C)C(=O)O4)C1CC2` [EM-1409, 3-Methoxy-2-trifluoromethyl-1,3,5(10)-estratrien-17(R)-spiro-2′-(5′,5′-dimethyl-6′-oxo)tetrahydropyran], the inhibition worked out at 4%.

With `COCCOc1cc2c(cc1C(=O)N(C)C)C1CCC3(C)C(CCC34CCC(C)(C)C(=O)O4)C1CC2` (stereo not shown) [EM-1413-CS], the inhibition stood at 69%.

Staying with this test, now noted: Table 4′; read-out: Inhibition Type 2 17β-HSD Activity IC50.
Consider `CC1(C)CC[C@@]2(CCC3C4CCc5cc(F)ccc5C4CC[C@@]32C)OC1=O` (stereo partly shown) [EM-1157-CS], for which the pIC50 is less than 5.00.

Consider `COc1c(Br)cc2c(c1Br)CCC1C2CCC2(C)C1CCC21CCC(C)(C)C(=O)O1` (stereo not shown) [EM-1385-CS], for which the pIC50 was less than 5.00.

`CN(C)CCOc1ccc2c(c1)CCC1C2CCC2(C)C1CCC21CCC(C)(C)C(=O)O1` (stereo not shown) [EM-1389-CS]: the pIC50 is less than 5.00.

With `CC1(C)CCC2(CCC3C4CCc5cc(OCCN6CCCCC6)ccc5C4CCC32C)OC1=O` [EM-1390-CS, 3-(N-piperidyl-ethyl)-1,3,5(10)-estratrien-17(R)-spiro-2′-(5′,5′-dimethyl-6′-oxo)-tetrahydropyran], the negative logarithm of the IC50 (pIC50) was less than 5.00.

In the case of `CC1(C)CCC2(CCC3C4CCc5c(cc(Cl)c(O)c5Cl)C4CCC32C)OC1=O` (stereo not shown) [EM-1391-CS], the pIC50 was less than 5.00.

With `CC1(C)CCC2(CCC3C4CCc5c(cc(Cl)c(OS(C)(=O)=O)c5Cl)C4CCC32C)OC1=O` (stereo not shown) [EM-1392-CS], the pIC50 was less than 5.00.

For `COCCOc1cc2c(cc1F)C1CCC3(C)C(CCC34CCC(C)(C)C(=O)O4)C1CC2` (stereo not shown) [EM-1393-CS], the pIC50 is less than 5.00.

Take `COc1ccc2c(c1)C(=O)CC1C2CC[C@@]2(C)C1CC[C@@]21CCC(C)(C)C(=O)O1` (stereo partly shown) [EM-1394]: the pIC50 is less than 5.00.

With `COCCOc1cc2c(cc1C(=O)O)C1CCC3(C)C(CCC34CCC(C)(C)C(=O)O4)C1CC2` [EM-1405, 2-Carboxy-3-(2″-methoxyethyloxy)-1,3,5(10)-estratrien-17(R)-spiro-2′-(5′,5′-dimethyl-6′-oxo)tetrahydropyran], the pIC50 was less than 5.00.

As for `COc1cc2c(cc1C)C1CCC3(C)C(CCC34CCC(C)(C)C(=O)O4)C1CC2` (stereo not shown) [EM-1412-CS], the pIC50 was less than 5.00.

`COCCOc1cc2c(cc1C(=O)N(C)C)C1CCC3(C)C(CCC34CCC(C)(C)C(=O)O4)C1CC2` (stereo not shown) [EM-1413-CS]: the pIC50 is less than 5.00.

Staying with this test, now noted: Table 5 column 5; bracketed values, 3.10^−5 M.
Regarding `CN1C(=O)C=C[C@]2(C)C3CC[C@@]4(C)C(CC[C@@]45CCCC(=O)O5)C3CCC12` (stereo partly shown) [EM-1122-CS], the “Inhibition Type 2 17β-HSD Activity [% Inh. at 3.10^−5 M]” value is “[90] %”.

The test is the same for the next values; noted with them: at 3.10^-8M.
Take `COc1ccc(CC(=O)O[C@]2(C(C)=O)CCC3C4C=C(C)C5=CC(=O)C=C[C@]5(C)C4CC[C@@]32C)cc1` (stereo partly shown) [EM-1291]: the “Inhibition Type 2 17β-HSD Activity [% Inh.]” value is “[67] %”.
